Here are results for one compound from US12697328B2, “Methods for treating metastasis with cathepsin C inhibitors” (Shanghai Institute of Nutrition and Health, Chinese Academy …, priority 2020, dated 2026).

One test relates to neutrophils. The test is described as follows: Formation of NETs in neutrophils stimulated by cancer cell conditioned medium (immunofluorescence, MPO and Ci-H3). The class given is cell-based, mice. The settings on record: CM of lung-/liver-metastatic breast cancer and bone-metastatic lung cancer cells, with or without brensocatib; FIGS. 11D, F, I. How it is done:
To isolate neutrophil from bone marrow, bone marrow cells from 8 to 12-weeks-old BALB/c mice were harvested in sterile Hank's buffered salt solution (HBSS) without Ca^2+/Mg^2+ (14185052, Invitrogen), and laid on top of a 2-layer Percoll (17089102, GE Healthcare) gradient (72% and 63.5% in HBSS), followed by centrifugation at 1,200 g for 30 min at 25° C. Neutrophils enriched in the interface of 63.5%-72% fractions were confirmed to be of >95% purity by flow cytometry analysis. To isolate neutrophils from peripheral blood of mice, whole blood was collected via cardiac puncture (1 ml per animal) and suspended in HBSS (2 ml per animal) with 15 mM EDTA. After centrifugation (400 g, 10 min, 4° C.), white cells were resuspended in 2 ml HBSS with 2 mM EDTA. […] The purity of the isolated neutrophils was determined by May-Grunwald-Giemsa staining (40751ES02, Yea-sen). […]
To assess NET formation, neutrophils (2.5×10^5 cells) were seeded on coverslips coated with poly-L-lysine (P4707, Sigma) in 24-well plates for 30 min before adding 10% cancer cell CM, Sivelestat (10 μM), PMA (20 nM, Sigma), Cl-amidine (100 μM, Selleck) and/or DNase I (1 μg/ml). […] NET area quantification was performed using the DANA method (Rebernick et al., “DNA area and NETosis analysis (DANA): a high-throughput method to quantify neutrophil extracellular traps in fluorescent microscope images,” Biol. Proced. Online 20:7 (2018)). […]

The subject of test [1] is CTSC-overexpressing AT3 cancer cells. The test is described as follows: Brensocatib treatment of mice after orthotopic injection of CTSC-overexpressing AT3 cancer cells. Format: in vivo, C57/BL6 mice. The settings on record: brensocatib 5 mg/kg orally twice daily. How it is done: Female BALB/c and athymic mice aged 6-10 weeks were used in all animal experiments. […] For EdU labeling assays, nude mice were intravenously injected with 2×10^5 cancer cells, followed by intraperitoneal (i.p.) injection of 100 ng/mouse EdU (ThermoFisher, C10640) 24 h before lung harvest. […] For Sivelestat or DNase I treatment, mice were i.p. injected with Sivelestat (50 mg/kg) or DNase I (5 mg/kg) 2 h before cancer cell injection, followed by daily injection of the reagents for 9 days, and then maintenance shots twice a week. For GSK484 treatment, mice were treated with GSK484 (20 mg/kg, i.p. daily shots for 20 days from day 7, and then maintenance shots every two days) following orthotopic injection of AT3 or 4T07 cells. For IL-1b blocking or IL6R/CCR1 inhibition assays, mice were orthotopically inoculated with 5×10^4 AT3 and treated with i.p. administration of IgG or the IL-1β blocking antibody (100 μg per mouse), or the IL6R blocking antibody (100 μg per mouse) and the CCR1 inhibitor BX471 (20 mg/kg), every two days from day 7 until the mice were sacrificed. For brensocatib treatment, BALB/c mice were orthotopically inoculated with 1×10^5 4T1 cells, and C57/BL6 mice were orthotopically inoculated with 2×10^5 AT3. Vehicle controls (0.5% HPMC, 0.1% Tween 80 in 0.1 M citrate buffer, pH 3) and brensocatib (5 mg/kg) were administered orally twice daily until the mice were sacrificed. Orthotopic tumors were surgically removed at the size of about 1 cm^3. […] For TSP-1 degradation assays, mice were i.p. injected with GSK484 (20 mg/kg) 2 h before cancer cell injection and followed by daily treatment. Then, the lungs were perfused with 50 ml of pre-chilled PBS through the right ventricle until they were cleared of blood at 72 h post injection of 3×10^6 AT3 or 4T07 cells. BLI was acquired with NightOWL II LB983 Imaging System (Bert-hold) and IVIS Spectrum CT (PerkinElmer). All animal studies were conducted according to the guidelines for the care and use of laboratory animals and were approved by the Institutional Animal Care and Use Committee of Shanghai Institute of Nutrition and Health.

Molecules are shown by their SMILES.

For `Cn1c(=O)oc2ccc(-c3ccc(C[C@@H](C#N)NC(=O)[C@@H]4CNCCCO4)cc3)cc21` [brensocatib, (2S)—N-{(1S)-1-cyano-2-[4-(3-methyl-2-oxo-2,3-dihydro-1,3-benzoxazol-5-yl)phenyl]ethyl}-1,4-oxazepane-2-carboxamide], the “formation of NETs” value with neutrophils was “significantly reduced”. For the same compound, the survival rate result in test [1] (FIG. 10J) is recorded as “significant increase”. For the same compound, the “circulating levels of IL-1β” value in test [1] (FIG. 10K) is on record as “decrease”. For the same compound, in test [1] (FIGS. 10G-I), the “circulating NETs” value is “Decreases”, the lung metastases entry is on record as “Decreases”, the “lung metastatic nodule formation” value is on record as “Decreases” and the neutrophil migration entry is recorded as “Decreases”.
